For 16 molecules, EC50 results are on record in patent publication US11951094B2, “TLR2 modulator compounds, pharmaceutical compositions and uses thereof” (Axial Therapeutics, Inc., priority 2020, dated 2024).

Test [1] concerns the target T1, TLR2 (Mus musculus, UniProt Q9QUN7).
T1 construct: endogenous in cells; host or cells: RAW 264.7
Put plainly: TLR2 functional assay, cytokine release from RAW 264.7 mouse macrophage cell line. The class given is cell-based. As to conditions: average of all runs. As for the experimental part:
Cells of the immune system respond to TLR agonists in part by secreting cytokines. Functional assays for TLR2 agonists measure cytokine release from purified immune cells or immortalized cell lines derived from immune cells. Cytokine release is measured by standard ELISA approaches or multiplexed analysis using the Meso Scale Discovery (MSD) platform.
Purified primary human peripheral blood mononuclear cells or RAW 264.7 mouse macrophage cell line cells are plated at approximately 40,000 cells per well. Cells are treated with agonist compounds and assays 6-24 hours post-treatment for cytokines released into the cell culture media.
Following assay measurements utilizing either HEK-Blue detection or cytokine release, all data is analyzed with the GraphPad Prism8 statistical package to determine EC50, binding and activity metrics for the TLR2 modulators.
Numerous cell lines derived from various cell types can respond to TLR2 agonists with stereotyped cytokine and chemokine secretion. In particular, cell lines derived from macrophages respond robustly to TLR2 agonists by secreting a wide array of cytokines, including (but not limited to) TNF-alpha, IL-1, IL-10 and IL-12. The human monocytic cell line THP-1, the mouse macrophage line RAW-264.7, and the rat macrophage line NR8383 were used. For each assay, the respective cell lines were plated into 96-well plates overnight and then treated the following day with various TLR2-engaging compounds at varying concentrations. The next day, supernatants were collected and assayed by multiplex immunodetection for cytokines released (MSD detection kits for respective species).
Data provided in Table 5 is generated using protocols described in Example 45 and 46.

Test [2] concerns the target TLR2 (Homo sapiens, UniProt O60603). Put plainly: TLR2 agonist screening assay, HEK-Blue TLR2 reporter cell line (NF-kB-driven SEAP, absorbance at 600 nm). The class given is cell-based. On the set-up: host or cells: HEK-293 (HEK-Blue TLR2 reporter cell line). As to conditions: HEK-Blue TLR2 reporter cells, agonist mode; average of all runs (Table 4). A digest of the protocol: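 EC50 values come from dilution series of agonist on TLR2-transfected HEK-293 reporter cells carrying an NF-kB-SEAP construct. Cells sat overnight with compound in substrate-containing Detection medium at 1% DMSO, and secreted phosphatase activity was quantified as absorbance at 600 nm.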

Structures are written as SMILES.

T1 sequence (Q9QUN7 25-784): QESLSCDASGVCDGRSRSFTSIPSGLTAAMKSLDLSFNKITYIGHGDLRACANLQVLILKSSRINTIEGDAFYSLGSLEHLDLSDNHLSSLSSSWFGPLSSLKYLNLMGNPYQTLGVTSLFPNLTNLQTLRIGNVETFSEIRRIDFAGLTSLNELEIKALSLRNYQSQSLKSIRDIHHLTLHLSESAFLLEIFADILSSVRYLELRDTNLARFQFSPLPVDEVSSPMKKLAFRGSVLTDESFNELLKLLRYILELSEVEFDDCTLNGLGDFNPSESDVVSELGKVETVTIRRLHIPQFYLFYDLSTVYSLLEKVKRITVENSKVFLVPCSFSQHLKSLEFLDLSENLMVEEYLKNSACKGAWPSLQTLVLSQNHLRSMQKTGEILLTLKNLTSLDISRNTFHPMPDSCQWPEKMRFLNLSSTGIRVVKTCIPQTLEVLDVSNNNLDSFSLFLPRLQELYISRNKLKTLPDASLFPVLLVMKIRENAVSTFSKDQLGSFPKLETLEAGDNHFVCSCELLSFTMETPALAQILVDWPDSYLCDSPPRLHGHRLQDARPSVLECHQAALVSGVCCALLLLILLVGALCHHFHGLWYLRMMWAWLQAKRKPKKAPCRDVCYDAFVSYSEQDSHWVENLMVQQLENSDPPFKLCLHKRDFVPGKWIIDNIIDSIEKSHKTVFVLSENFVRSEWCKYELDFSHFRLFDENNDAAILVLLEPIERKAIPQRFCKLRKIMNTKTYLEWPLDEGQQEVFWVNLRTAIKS
TLR2 (Homo sapiens, UniProt O60603), sequence (O60603 21-784): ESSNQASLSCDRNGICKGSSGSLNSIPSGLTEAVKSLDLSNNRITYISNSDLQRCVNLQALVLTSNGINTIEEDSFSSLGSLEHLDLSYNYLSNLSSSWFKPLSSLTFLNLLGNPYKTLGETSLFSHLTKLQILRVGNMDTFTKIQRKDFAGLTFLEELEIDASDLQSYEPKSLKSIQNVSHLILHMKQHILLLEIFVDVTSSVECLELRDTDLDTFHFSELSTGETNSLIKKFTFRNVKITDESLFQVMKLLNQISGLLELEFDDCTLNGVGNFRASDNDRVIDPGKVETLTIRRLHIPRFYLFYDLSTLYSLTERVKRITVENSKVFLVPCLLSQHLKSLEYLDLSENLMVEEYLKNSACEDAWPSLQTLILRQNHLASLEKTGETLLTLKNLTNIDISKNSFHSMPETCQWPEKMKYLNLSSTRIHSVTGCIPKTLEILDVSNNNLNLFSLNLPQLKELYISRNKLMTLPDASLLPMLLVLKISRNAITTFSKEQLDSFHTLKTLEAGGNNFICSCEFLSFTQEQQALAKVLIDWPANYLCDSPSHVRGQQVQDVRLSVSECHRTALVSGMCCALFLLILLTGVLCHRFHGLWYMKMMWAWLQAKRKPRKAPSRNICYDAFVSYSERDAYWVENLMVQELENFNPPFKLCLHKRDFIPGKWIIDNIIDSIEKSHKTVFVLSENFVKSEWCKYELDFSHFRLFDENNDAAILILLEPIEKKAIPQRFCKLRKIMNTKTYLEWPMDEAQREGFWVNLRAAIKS

What is called EC50 is the concentration giving half of the maximal effect. As for `CCCCCCCCCCCNC(=O)N[C@H]1CN(C(c2ccc(C(=O)N3C[C@@H](C(=O)N[C@H]4C[C@@H]4c4ccccc4)[C@H](C(=O)N[C@H]4C[C@@H]4c4ccccc4)C3)cc2)C(F)(F)F)C[C@@H]1OC` (single isomer, unassigned) [Compound 230, (3S,4S)—N3,N4-bis((1S,2R)-2-phenylcyclopropyl)-1-(4-((R*)-2,2,2-trifluoro-1-((3S,4S)-3-methoxy-4-(3-undecylureido)pyrrolidin-1-yl)ethyl)benzoyl)pyrrolidine-3,4-dicarboxamide], the EC50 on TLR2 [1] was > 1000 nM; on TLR2 [2], 0.1 to 50 nM.

On to `CCCCCCCCCCCNC(=O)N[C@H]1CN(C(c2ccc(C(=O)N3C[C@@H](C(=O)N[C@H]4C[C@@H]4c4ccccc4)[C@H](C(=O)N[C@H]4C[C@@H]4c4ccccc4)C3)cc2)C(F)(F)F)C[C@@H]1OC` (single isomer, unassigned) [Compound 231, (3S,4S)—N3,N4-bis((1S,2R)-2-phenylcyclopropyl)-1-(4-((S*)-2,2,2-trifluoro-1-((3S,4S)-3-methoxy-4-(3-undecylureido)pyrrolidin-1-yl)ethyl)benzoyl)pyrrolidine-3,4-dicarboxamide], for which the EC50 lay in the range of 51 to 350 nM on TLR2 [1] and 0.1 to 50 nM at TLR2 [2].

As to `CCCCCCCCCCCCCNC(=O)N[C@H]1CN(C(=O)c2ccc(C(=O)N3C[C@@H](C(=O)N[C@H]4C[C@@H]4c4ccccc4)[C@H](C(=O)N[C@H]4C[C@@H]4c4ccccc4)C3)cc2)C[C@@H]1OC` [Compound 134, (3S,4S)-1-(4-((3S,4S)-3-methoxy-4-(3-tridecylureido)pyrrolidine-1-carbonyl)benzoyl)-N3,N4-bis((1S,2R)-2-phenylcyclopropyl)pyrrolidine-3,4-dicarboxamide], the EC50 was in the range of 351 to 1000 nM at TLR2 [1] and 0.1 to 50 nM on TLR2 [2].

Turning to `CCCCCCNC(=O)[C@H](CNC(=O)c1ccc(C(=O)N2C[C@@H](C(=O)N[C@H]3C[C@@H]3c3ccccc3)[C@H](C(=O)N[C@H]3C[C@@H]3c3ccccc3)C2)cc1)NC(=O)Cc1ccc(F)cc1` [Compound 138, (3S,4S)-1-(4-(((S)-2-(2-(4-fluorophenyl)acetamido)-3-(hexylamino)-3-oxopropyl)carbamoyl)benzoyl)-N3,N4-bis((1S,2R)-2-phenylcyclopropyl) pyrrolidine-3,4-dicarboxamide], the EC50 on TLR2 [1] was > 1000 nM; on TLR2 [2], 0.1 to 50 nM.

As for `CCCCCCCCC(=O)N[C@@H](CNC(=O)c1ccc(C(=O)N2C[C@@H](C(=O)N[C@H]3C[C@@H]3c3ccccc3)[C@H](C(=O)N[C@H]3C[C@@H]3c3ccccc3)C2)cc1)C(=O)NCCCCCC` [Compound 140, (3S,4S)-1-(4-(((S)-3-(hexylamino)-2-nonanamido-3-oxopropyl)carbamoyl)benzoyl)-N3,N4-bis((1S,2R)-2-phenylcyclopropyl)pyrrolidine-3,4-dicarboxamide], the EC50 lay in the range of 51 to 350 nM at TLR2 [1] and 0.1 to 50 nM at TLR2 [2].

Regarding `CCCCCCCCCCCCCCC(=O)N[C@@H]1CCCN(C(=O)c2ccc(C(=O)N3C[C@@H](C(=O)N[C@H]4C[C@@H]4c4ccccc4)[C@H](C(=O)N[C@H]4C[C@@H]4c4ccccc4)C3)cc2)C1` [Compound 152, (3S,4S)-1-(4-((R)-3-pentadecanamidopiperidine-1-carbonyl)benzoyl)-N3,N4-bis((1S,2R)-2-phenylcyclopropyl)pyrrolidine-3,4-dicarboxamide], the EC50 at TLR2 [1] was > 1000 nM; at TLR2 [2], 0.1 to 50 nM.

`CCCCCCCCCC(=O)N[C@@H](CNC(=O)c1ccc(C(=O)N2C[C@@H](C(=O)N[C@H]3C[C@@H]3c3ccccc3)[C@H](C(=O)N[C@H]3C[C@@H]3c3ccccc3)C2)cc1)C(=O)NCCCCCC` [Compound 175, (3S,4S)-1-(4-(((S)-2-decanamido-3-(hexylamino)-3-oxopropyl)carbamoyl)benzoyl)-N3,N4-bis ((1S,2R)-2-phenylcyclopropyl) pyrrolidine-3,4-dicarboxamide]: the concentration giving a half-maximal response (EC50) at TLR2 [1] lay in the range of 51 to 350 nM; at TLR2 [2] it was 0.1 to 50 nM.

With `CCCCCCCNC(=O)N[C@@H](CNC(=O)c1ccc(C(=O)N2C[C@@H](C(=O)N[C@H]3C[C@@H]3c3ccccc3)[C@H](C(=O)N[C@H]3C[C@@H]3c3ccccc3)C2)cc1)C(=O)NCCCCCC` [Compound 181, (3S,4S)-1-(4-(((S)-2-(3-heptylureido)-3-(hexylamino)-3-oxopropyl)carbamoyl)benzoyl)-N3,N4-bis ((1S,2R)-2-phenylcyclopropyl) pyrrolidine-3,4-dicarboxamide], the half-maximal effective concentration (EC50) on TLR2 [1] is > 1000 nM; on TLR2 [2] it was 0.1 to 50 nM.

For `CCCCCCCNC(=O)[C@H](CNC(=O)c1ccc(C(=O)N2C[C@@H](C(=O)N[C@H]3C[C@@H]3c3ccccc3)[C@H](C(=O)N[C@H]3C[C@@H]3c3ccccc3)C2)cc1)NC(=O)CCCCCCC` [Compound 184, (3S,4S)-1-(4-(((S)-3-(heptylamino)-2-octanamido-3-oxopropyl)carbamoyl)benzoyl)-N3,N4-bis((1S,2R)-2-phenylcyclopropyl)pyrrolidine-3,4-dicarboxamide], the concentration giving a half-maximal response (EC50) at TLR2 [1] fell in the range of 51 to 350 nM; on TLR2 [2], 0.1 to 50 nM.

For `CCCCCCNC(=O)[C@H](Cn1cc(-c2ccc(C(=O)N3C[C@@H](C(=O)N[C@H]4C[C@@H]4c4ccccc4)[C@H](C(=O)N[C@H]4C[C@@H]4c4ccccc4)C3)cc2)nn1)NC(=O)CCCCCC` [Compound 185, (3S,4S)-1-(4-(1-((S)-2-heptanamido-3-(hexylamino)-3-oxopropyl)-1H-1,2,3-triazol-4-yl)benzoyl)-N3,N4-bis((1S,2R)-2-phenylcyclopropyl)pyrrolidine-3,4-dicarboxamide], the EC50 on TLR2 [1] and on TLR2 [2] was 0.1 to 50 nM each time.

`CCCCCCCCCCCCNC(=O)N[C@H]1CN(C(=O)c2ccc(C(=O)N3C[C@@H](C(=O)N[C@H]4C[C@@H]4c4ccccc4)[C@H](C(=O)N[C@H]4C[C@@H]4c4ccccc4)C3)cc2)C[C@@H]1OC` [Compound 188, (3S,4S)-1-(4-((3S,4S)-3-(3-dodecylureido)-4-methoxypyrrolidine-1-carbonyl)benzoyl)-N3,N4-bis((1S,2R)-2-phenylcyclopropyl)pyrrolidine-3,4-dicarboxamide]: the EC50 at TLR2 [1] was 351 to 1000 nM; on TLR2 [2], 0.1 to 50 nM.

`CCCCCCCCCCCCCNC(=O)N[C@H]1CN(C(c2ccc(C(=O)N3C[C@@H](C(=O)N[C@H]4C[C@@H]4c4ccccc4)[C@H](C(=O)N[C@H]4C[C@@H]4c4ccccc4)C3)cc2)C(F)(F)F)C[C@@H]1OC` (stereo partly drawn) [Compound 189, (3S,4S)—N3,N4-bis((1S,2R)-2-phenylcyclopropyl)-1-(4-(2,2,2-trifluoro-1-((3S,4S)-3-methoxy-4-(3-tridecylureido)pyrrolidin-1-yl)ethyl)benzoyl)pyrrolidine-3,4-dicarboxamide]: the EC50 on TLR2 [1] lay in the range of 351 to 1000 nM; on TLR2 [2], 0.1 to 50 nM.

Turning to `CCCCCCCCNC(=O)[C@H](CNC(=O)c1ccc(C(=O)N2C[C@@H](C(=O)N[C@H]3C[C@@H]3c3ccccc3)[C@H](C(=O)N[C@H]3C[C@@H]3c3ccccc3)C2)cc1)NC(=O)CCCCCCCC` [Compound 197, (3S,4S)-1-(4-(((S)-2-nonanamido-3-(octylamino)-3-oxopropyl)carbamoyl)benzoyl)-N3,N4-bis((1S,2R)-2-phenylcyclopropyl)pyrrolidine-3,4-dicarboxamide], the results for the EC50 on TLR2 [1] and at TLR2 [2] were 351 to 1000 nM and 0.1 to 50 nM, respectively.

Regarding `CCCCCNC(=O)[C@@H]1CN(C(=O)c2ccc(C(=O)N3C[C@@H](C(=O)N[C@H]4C[C@@H]4c4ccccc4)[C@H](C(=O)N[C@H]4C[C@@H]4c4ccccc4)C3)cc2)CCN1C(C)=O` [Compound 264, (3S,4S)-1-(4-((S)-4-acetyl-3-(pentylcarbamoyl)piperazine-1-carbonyl)benzoyl)-N3,N4-bis((1S,2R)-2-phenylcyclopropyl) pyrrolidine-3,4-dicarboxamide], on TLR2 [2], the EC50 is > 1000 nM.

For the molecule `CCCNC(=O)[C@@H]1CN(C(=O)c2ccc(C(=O)N3C[C@@H](C(=O)N[C@H]4C[C@@H]4c4ccccc4)[C@H](C(=O)N[C@H]4C[C@@H]4c4ccccc4)C3)cc2)CCN1C(C)=O` [Compound 265, (3S,4S)-1-(4-((S)-4-acetyl-3-(propylcarbamoyl)piperazine-1-carbonyl)benzoyl)-N3,N4-bis((1S,2R)-2-phenylcyclopropyl) pyrrolidine-3,4-dicarboxamide], on TLR2 [2], the EC50 is > 1000 nM.

At TLR2 [2], `CCCCCCCCCC(=O)N[C@@H](CNCc1ccc(C(=O)N2C[C@@H](C(=O)N[C@H]3C[C@@H]3c3ccccc3)[C@H](C(=O)N[C@H]3C[C@@H]3c3ccccc3)C2)cc1)C(=O)NCCCCCC` [Compound 266, (3S,4S)-1-(4-((((S)-2-decanamido-3-(hexylamino)-3-oxopropyl)amino)methyl)benzoyl)-N3,N4-bis((1S,2R)-2-phenylcyclopropyl) pyrrolidine-3,4-dicarboxamide] registered an EC50 of 351 to 1000 nM.
